Results published in patent publication US6737383B1, “Herbicidal oxadiazolidines” (priority 1999, dated 2004).

Assays:
sugar beet = assay: Test B pre/postemergence sugar beet; format: in vivo, Beta vulgaris
Summary of the method: (§1)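 Response is a visual 0-to-10 score relative to untreated plants, where 0 means no effect and 10 means complete control, taken twelve to sixteen days after application. Treatments went onto soil at planting and onto foliage of 1- to 4-leaf plants, using a surfactant-containing non-phytotoxic solvent.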

corn = assay: Test B pre/postemergence corn; format: in vivo, Zea mays
Summary of the method: as §1

soybean = assay: Test B pre/postemergence soybean; format: in vivo, Glycine max
Summary of the method: as §1

purple nutsedge = assay: Test B pre/postemergence purple nutsedge; format: in vivo, Cyperus rotundus
Summary of the method: as §1

giant foxtail = assay: Test B pre/postemergence giant foxtail; format: in vivo, Setaria faberii
Summary of the method: as §1

surinam grass = assay: Test B pre/postemergence surinam grass; format: in vivo, Brachiaria decumbens
Summary of the method: as §1

wild oat = assay: Test B pre/postemergence wild oat; format: in vivo, Avena fatua
Summary of the method: as §1

crabgrass = assay: Test B pre/postemergence crabgrass; format: in vivo, Digitaria sanguinalis
Summary of the method: as §1

morningglory = assay: Test B pre/postemergence morningglory; format: in vivo, Ipomoea hederacea
Summary of the method: as §1

cocklebur = assay: Test B pre/postemergence cocklebur; format: in vivo, Xanthium strumarium
Summary of the method: as §1

bedstraw = assay: Test B pre/postemergence bedstraw; format: in vivo, Galium aparine; details: for Bedstraw plant response rating: 10 is complete control; for Plant response rating, Bedstraw: scale of 0 to 10 where 0 is no effect and 10 is complete control
Summary of the method: as §1

wheat = assay: Test B pre/postemergence wheat; format: in vivo, Triticum aestivum
Summary of the method: as §1

velvetleaf = assay: Test B pre/postemergence velvetleaf; format: in vivo, Abutilon theophrasti
Summary of the method: as §1

pigweed = assay: Test B pre/postemergence pigweed; format: in vivo, Amaranthus retroflexus
Summary of the method: as §1

blackgrass = assay: Test B pre/postemergence blackgrass; format: in vivo, Alopecurus myosuroides
Summary of the method: as §1

rape = assay: Test B pre/postemergence rape; format: in vivo, Brassica napus
Summary of the method: as §1

[1] = Postemergence, Rate 62 g/ha, scale of 0 to 10, 0 is no effect, 10 is complete control
[2] = Postemergence, Rate 125 g/ha, scale 0 to 10, 0 is no effect, 10 is complete control
[3] = Postemergence, Rate 500 g/ha, scale 0 to 10, 0 is no effect, 10 is complete control
[4] = Preemergence, Rate 62 g/ha, scale of 0 to 10 where 0 is no effect and 10 is complete control
[5] = Preemergence, Rate 125 g/ha, scale 0 to 10, 0 is no effect, 10 is complete control
[6] = Preemergence, Rate 500 g/ha, scale of 0 to 10 where 0 is no effect and 10 is complete control
[7] = Postemergence, Rate 250 g/ha, scale 0 to 10
[8] = Postemergence, Rate 250 g/ha, scale 0 to 10, 0 no effect, 10 complete control
[9] = Preemergence, Rate 250 g/ha, scale 0 to 10, 0 is no effect, 10 is complete control
[10] = Preemergence, Rate 500 g/ha, scale 0 to 10, 0 is no effect, 10 is complete control
[11] = Preemergence, Rate 250 g/ha, scale 0 to 10, 0 is no effect
[12] = Preemergence, Rate 500 g/ha, scale 0 to 10, 0 is no effect

## CC(C)N(C(=O)n1oc(=O)n(C(C)C(=O)c2ccccc2)c1=O)c1ccc(F)cc1F (stereo not drawn) [Compound 511]
Sugar beet; [1]
  Sugarbeets plant response rating: 0
Sugar beet; [2]
  Sugarbeets plant response rating: 0
Sugar beet; [3]
  Plant response rating, Sugarbeets: 2
Sugar beet; [4]
  Plant response rating, Sugarbeets: 0
Sugar beet; [5]
  Sugarbeets plant response rating: 0
Sugar beet; [6]
  Sugarbeets plant response rating: 0
corn; [1]
  Corn plant response rating: 0
corn; [2]
  Corn plant response rating: 0
corn; [7]
  Corn plant response rating: 0
corn; [3]
  Plant response rating, Corn: 0
corn; [4]
  Plant response rating, Corn: 0
corn; [5]
  Corn plant response rating: 0
corn; [6]
  Corn plant response rating: 0
soybean; [1]
  Soybean plant response rating: 1
soybean; [2]
  Soybean plant response rating: 4
soybean; [3]
  Plant response rating, Soybean: 4
soybean; [4]
  Plant response rating, Soybean: 0
soybean; [5]
  Soybean plant response rating: 0
soybean; [6]
  Soybean plant response rating: 0
Purple nutsedge; [1]
  Nutsedge plant response rating: 0
Purple nutsedge; [2]
  Nutsedge plant response rating: 0
Purple nutsedge; [3]
  Plant response rating, Nutsedge: 0
Purple nutsedge; [4]
  Plant response rating, Nutsedge: 0
Purple nutsedge; [5]
  Nutsedge plant response rating: 0
Purple nutsedge; [6]
  Nutsedge plant response rating: 0
Giant foxtail; [1]
  Giant foxtail plant response rating: 3
Giant foxtail; [2]
  Giant foxtail plant response rating: 3
Giant foxtail; [3]
  Plant response rating, Giant foxtail: 9
Giant foxtail; [4]
  Plant response rating, Giant foxtail: 5
Giant foxtail; [6]
  Giant foxtail plant response rating: 10
Surinam grass; [1]
  B. signalgrass plant response rating: 0
Surinam grass; [2]
  B. signalgrass plant response rating: 0
Surinam grass; [8]
  B. signalgrass plant response rating: 0
Surinam grass; [3]
  Plant response rating, B. signalgrass: 3
Surinam grass; [4]
  Plant response rating, B. signalgrass: 0
Surinam grass; [5]
  B. signalgrass plant response rating: 0
Surinam grass; [9]
  B. signalgrass plant response rating: 0
Surinam grass; [10]
  B. signalgrass plant response rating: 0
Wild oat; [1]
  Wild oats plant response rating: 0
Wild oat; [2]
  Wild oats plant response rating: 0
Wild oat; [3]
  Plant response rating, Wild oats: 0
Wild oat; [4]
  Plant response rating, Wild oats: 0
Wild oat; [5]
  Wild oats plant response rating: 0
Wild oat; [6]
  Wild oats plant response rating: 2
crabgrass; [1]
  Crabgrass plant response rating: 3
crabgrass; [2]
  Crabgrass plant response rating: 3
crabgrass; [7]
  Crabgrass plant response rating: 7
crabgrass; [3]
  Plant response rating, Crabgrass: 9
crabgrass; [4]
  Plant response rating, Crabgrass: 5
crabgrass; [5]
  Crabgrass plant response rating: 6
crabgrass; [6]
  Crabgrass plant response rating: 10
morningglory; [1]
  Morningglory plant response rating: 4
morningglory; [2]
  Morningglory plant response rating: 4
morningglory; [3]
  Plant response rating, Morningglory: 5
morningglory; [4]
  Plant response rating, Morningglory: 0
morningglory; [5]
  Morningglory plant response rating: 0
morningglory; [6]
  Morningglory plant response rating: 0
cocklebur; [1]
  Cocklebur plant response rating: 0
cocklebur; [2]
  Cocklebur plant response rating: 0
cocklebur; [7]
  Cocklebur plant response rating: 0
cocklebur; [3]
  Plant response rating, Cocklebur: 0
cocklebur; [4]
  Plant response rating, Cocklebur: 0
cocklebur; [5]
  Cocklebur plant response rating: 0
cocklebur; [9]
  Cocklebur plant response rating: 0
cocklebur; [6]
  Cocklebur plant response rating: 0
bedstraw; Postemergence, Rate 125 g/ha, scale 0 to 10, 0 is no effect
  Bedstraw plant response rating: 8
bedstraw; Preemergence, Rate 62 g/ha
  Plant response rating, Bedstraw: 0
bedstraw; Preemergence, Rate 125 g/ha, scale 0 to 10, 0 is no effect
  Bedstraw plant response rating: 0
bedstraw; [11]
  Bedstraw plant response rating: 0
bedstraw; [12]
  Bedstraw plant response rating: 0
wheat; [1]
  Wheat plant response rating: 0
wheat; [2]
  Wheat plant response rating: 0
wheat; [3]
  Plant response rating, Wheat: 0
wheat; [4]
  Plant response rating, Wheat: 0
wheat; [5]
  Wheat plant response rating: 0
wheat; [6]
  Wheat plant response rating: 0
velvetleaf; [1]
  Velvetleaf plant response rating: 0
velvetleaf; [2]
  Velvetleaf plant response rating: 1
velvetleaf; [3]
  Plant response rating, Velvetleaf: 2
velvetleaf; [4]
  Plant response rating, Velvetleaf: 0
velvetleaf; [5]
  Velvetleaf plant response rating: 0
velvetleaf; [6]
  Velvetleaf plant response rating: 0
pigweed; [1]
  Redroot pigweed plant response rating: 5
pigweed; [2]
  Redroot pigweed plant response rating: 6
pigweed; [3]
  Plant response rating, Redroot pigweed: 7
pigweed; [4]
  Plant response rating, Redroot pigweed: 4
pigweed; [5]
  Redroot pigweed plant response rating: 6
pigweed; [6]
  Redroot pigweed plant response rating: 8
blackgrass; [1]
  Blackgrass plant response rating: 0
blackgrass; [2]
  Blackgrass plant response rating: 0
blackgrass; [7]
  Blackgrass plant response rating: 0
blackgrass; [3]
  Plant response rating, Blackgrass: 2
blackgrass; [4]
  Plant response rating, Blackgrass: 0
blackgrass; [5]
  Blackgrass plant response rating: 0
blackgrass; [9]
  Blackgrass plant response rating: 0
blackgrass; [6]
  Blackgrass plant response rating: 0
rape; [1]
  Rape plant response rating: 0
rape; [2]
  Rape plant response rating: 1
rape; [3]
  Plant response rating, Rape: 4
rape; [4]
  Plant response rating, Rape: 0
rape; [5]
  Rape plant response rating: 0
rape; [6]
  Rape plant response rating: 0

## COC(=O)CCCn1c(=O)on(C(=O)N(c2ccc(F)cc2F)C(C)C)c1=O [Compound 513]
Sugar beet; [1]
  Sugarbeets plant response rating: 2
Sugar beet; [2]
  Sugarbeets plant response rating: 4
Sugar beet; [3]
  Plant response rating, Sugarbeets: 7
Sugar beet; [4]
  Plant response rating, Sugarbeets: 0
Sugar beet; [5]
  Sugarbeets plant response rating: 0
Sugar beet; [6]
  Sugarbeets plant response rating: 0
corn; [1]
  Corn plant response rating: 0
corn; [2]
  Corn plant response rating: 0
corn; [7]
  Corn plant response rating: 0
corn; [3]
  Plant response rating, Corn: 3
corn; [4]
  Plant response rating, Corn: 0
corn; [5]
  Corn plant response rating: 0
corn; [6]
  Corn plant response rating: 4
soybean; [1]
  Soybean plant response rating: 1
soybean; [2]
  Soybean plant response rating: 7
soybean; [3]
  Plant response rating, Soybean: 8
soybean; [4]
  Plant response rating, Soybean: 0
soybean; [5]
  Soybean plant response rating: 0
soybean; [6]
  Soybean plant response rating: 5
Purple nutsedge; [1]
  Nutsedge plant response rating: 0
Purple nutsedge; [2]
  Nutsedge plant response rating: 0
Purple nutsedge; [3]
  Plant response rating, Nutsedge: 5
Purple nutsedge; [4]
  Plant response rating, Nutsedge: 0
Purple nutsedge; [5]
  Nutsedge plant response rating: 0
Purple nutsedge; [6]
  Nutsedge plant response rating: 0
Giant foxtail; [1]
  Giant foxtail plant response rating: 1
Giant foxtail; [2]
  Giant foxtail plant response rating: 5
Giant foxtail; [3]
  Plant response rating, Giant foxtail: 8
Giant foxtail; [4]
  Plant response rating, Giant foxtail: 2
Giant foxtail; [5]
  Giant foxtail plant response rating: 6
Giant foxtail; [6]
  Giant foxtail plant response rating: 10
Surinam grass; [1]
  B. signalgrass plant response rating: 0
Surinam grass; [2]
  B. signalgrass plant response rating: 3
Surinam grass; [8]
  B. signalgrass plant response rating: 6
Surinam grass; [3]
  Plant response rating, B. signalgrass: 8
Surinam grass; [4]
  Plant response rating, B. signalgrass: 0
Surinam grass; [5]
  B. signalgrass plant response rating: 0
Surinam grass; [9]
  B. signalgrass plant response rating: 5
Surinam grass; [10]
  B. signalgrass plant response rating: 9
Wild oat; [1]
  Wild oats plant response rating: 0
Wild oat; [2]
  Wild oats plant response rating: 4
Wild oat; [3]
  Plant response rating, Wild oats: 6
Wild oat; [4]
  Plant response rating, Wild oats: 3
Wild oat; [5]
  Wild oats plant response rating: 3
Wild oat; [6]
  Wild oats plant response rating: 10
crabgrass; [1]
  Crabgrass plant response rating: 1
crabgrass; [2]
  Crabgrass plant response rating: 4
crabgrass; [7]
  Crabgrass plant response rating: 6
crabgrass; [3]
  Plant response rating, Crabgrass: 9
crabgrass; [4]
  Plant response rating, Crabgrass: 4
crabgrass; [5]
  Crabgrass plant response rating: 4
crabgrass; [6]
  Crabgrass plant response rating: 5
morningglory; [1]
  Morningglory plant response rating: 3
morningglory; [2]
  Morningglory plant response rating: 3
morningglory; [3]
  Plant response rating, Morningglory: 9
morningglory; [4]
  Plant response rating, Morningglory: 0
morningglory; [5]
  Morningglory plant response rating: 0
morningglory; [6]
  Morningglory plant response rating: 3
cocklebur; [1]
  Cocklebur plant response rating: 3
cocklebur; [2]
  Cocklebur plant response rating: 3
cocklebur; [7]
  Cocklebur plant response rating: 6
cocklebur; [3]
  Plant response rating, Cocklebur: 7
cocklebur; [4]
  Plant response rating, Cocklebur: 0
cocklebur; [5]
  Cocklebur plant response rating: 0
cocklebur; [9]
  Cocklebur plant response rating: 0
cocklebur; [6]
  Cocklebur plant response rating: 0
bedstraw; Postemergence, Rate 62 g/ha, scale of 0 to 10, 0 is no effect
  Bedstraw plant response rating: 6
bedstraw; Preemergence, Rate 62 g/ha
  Plant response rating, Bedstraw: 0
bedstraw; [11]
  Bedstraw plant response rating: 0
bedstraw; [12]
  Bedstraw plant response rating: 4
wheat; [1]
  Wheat plant response rating: 3
wheat; [2]
  Wheat plant response rating: 5
wheat; [3]
  Plant response rating, Wheat: 6
wheat; [4]
  Plant response rating, Wheat: 0
wheat; [5]
  Wheat plant response rating: 2
wheat; [6]
  Wheat plant response rating: 7
velvetleaf; [1]
  Velvetleaf plant response rating: 3
velvetleaf; [2]
  Velvetleaf plant response rating: 3
velvetleaf; [3]
  Plant response rating, Velvetleaf: 7
velvetleaf; [4]
  Plant response rating, Velvetleaf: 0
velvetleaf; [5]
  Velvetleaf plant response rating: 0
velvetleaf; [6]
  Velvetleaf plant response rating: 0
pigweed; [1]
  Redroot pigweed plant response rating: 3
pigweed; [2]
  Redroot pigweed plant response rating: 6
pigweed; [3]
  Plant response rating, Redroot pigweed: 7
pigweed; [4]
  Plant response rating, Redroot pigweed: 7
pigweed; [5]
  Redroot pigweed plant response rating: 7
pigweed; [6]
  Redroot pigweed plant response rating: 10
blackgrass; [1]
  Blackgrass plant response rating: 4
blackgrass; [2]
  Blackgrass plant response rating: 4
blackgrass; [7]
  Blackgrass plant response rating: 8
blackgrass; [3]
  Plant response rating, Blackgrass: 8
blackgrass; [4]
  Plant response rating, Blackgrass: 1
blackgrass; [5]
  Blackgrass plant response rating: 4
blackgrass; [9]
  Blackgrass plant response rating: 4
blackgrass; [6]
  Blackgrass plant response rating: 10
rape; [1]
  Rape plant response rating: 0
rape; [2]
  Rape plant response rating: 4
rape; [3]
  Plant response rating, Rape: 7
rape; [4]
  Plant response rating, Rape: 0
rape; [5]
  Rape plant response rating: 2
rape; [6]
  Rape plant response rating: 7
